Literature values as cited in patent US3981916A, “Reduction of nitroparaffin substrates to their corresponding oximes using a silver salt catalyst” (priority 1970, dated 1976).
Where two headings read alike, the source gives them in different places.

[1] = 25°C, aqueous solution, literature values (Table I)

SMILES | pKa (First Acid Dissociation Constant) (water) | pKa (First Acid Dissociation Constant) [1]
NCCCCCCN [1,6-diaminohexane] | 11.1 | –
CN(C)CCN(C)C [N,N,N,N',-Tetramethyl-ethylenediamine] | 5.85 | –
OCCNCCO [Diethanolamine] | 9.35 | –
NCCCNCCCN [3,3'-iminobispropylamine] | 10.70 | –
NCCCN [1,3-diaminopropane] | 10.54 | –

The next lines start with the values.

pKa (First Acid Dissociation Constant) (water) | pKa (First Acid Dissociation Constant) [1] | SMILES
– | 11.50 | CN(C)C(=N)N(C)C [Tetramethylguanidine]
– | 9.92 | NCCNCCNCCN [Triethylenetetramine]
10.59 | – | CCCCN [n-Butylamine]
– | 9.98 | NCCN [Ethylenediamine]
9.9 | – | NCCNCCNCCNCCN [Tetraethylenepentamine]
10.40 | – | CCCCCCN [n-Hexylamine]
